In brackets after ≈: the same amount, converted by molar mass. Like-named read-outs stand apart in the source and are kept apart here.
How the values were obtained:
[1] = Water solubility of saturated solutions at pH 7.0, measured by HPLC; settings: metalaxyl and prothioconazole as separate compounds (0.2 g each in one bottle), 10 mL pH 7.0 buffer, stirred about 12 hours at 20° C.±1° C.
Procedure: A saturated solution of metalaxyl and prothioconazole as separate compounds was prepared by the following procedure: 0.2 grams each of metalaxyl and prothioconazole were weighed and placed into a 0.5 oz bottle. 10 mL of pH 7.0 (Fisher #SB107-500) was added to the bottle. A magnetic stir bar was added to the bottle and the bottle was capped and shaken. The bottle was placed on a magnetic stirrer for about 12 hours at a temperature of 20° C.±1° C. stirring on low.
10 mL of pH 7.0 (Fisher #SB107-500) was added to the bottle. A magnetic stir bar was added to the bottle and the bottle was capped and shaken. The bottle was placed on a magnetic stirrer for about 12 hours in a room at 20° C.±1° C., stirring on low.

[2] = water solubility measurements at pH 7.0 in an aspect, cited from earlier work

| SMILES | solubility at pH 7.0 [1] [%] | water solubility ([2]; at 22° C.) | water solubility ([2]; at 25° C.) [µg/L] |
| --- | --- | --- | --- |
| COCC(=O)N(c1c(C)cccc1C)C(C)C(=O)OC (racemic) [metalaxyl, N-(2,6-dimethylphenyl)-N-(methoxyacetyl)-DL-alanine methyl ester] | 0.62 | about 8.4 g/l |  |
| OC(Cc1ccccc1Cl)(Cn1nc[nH]c1=S)C1(Cl)CC1 (stereo not shown) [prothioconazole, 2-[2-(1-chlorocyclopropyl)-3-(2-chlorophenyl)-2-hydroxypropyl]-1,2-dihydro-3H-1,2,4-triazole-3-thione] | 0.0002 |  | 610 (≈ 1.77 µM) |

Reference: US9795137B2, “Metalaxyl and prothioconazole cocrystals and methods of making and using” (Bayer CropScience LP, priority 2012, dated 2017)
